Entries after “also recorded” stand apart in the source; their conditions may differ.
How the values were obtained:
[1] = tested on: HCT116-CACO2 ringed constructs; test: Ringed organoid drug screening, live-dead stain; type: cell-based; settings: for % dead: % live ratio: drug day 5, stain day 7; for cell type targeted in ringed construct (live-dead images): inner HCT116 versus outer CACO2, day 7
Procedure: Polydimethylsiloxane, or PDMS, was again used to coat the bottom of the wells. HCT116 cells were embedded within hyaluronan hydrogel and constructs were created on the PDMS surface. CACO2 cells that were also embedded within hyaluronan gel were used to create the outer ring around the HCT116 inner-ring construct (FIG. 9, panel A).
A live-dead stain was carried out on the ringed-constructs on day 7 and imaged on an Axiovert microscope (FIG. 9, panel B). The imaging software, MATLAB, was used to generate a % dead: % live ratio (or % red (medium grey in black and white images): % green (light grey in black and white images)) for the ringed-constructs. The values were then graphed showing the ratios for each of the concentrations of Regorafenib and 5-FU and against the control, untreated ratio (FIG. 9, panel C). At 100 μM, Regorafenib and 5-FU both have % dead: % live ratios of 0.98. This means that approximately half of the HCT116 and CACO2 cells are alive and half have been targeted by the anticancer drugs. When analyzing the relative cellular viability when the 1 μM and 10 μM concentrations of Regorafenib and 5-FU were administered, the % dead: % live ratios are much greater for the 5-FU solutions than for the Regorafenib solutions. At 1 μM, the % dead: % live ratio is 0.95 for 5-FU as opposed to 0.48 for Regorafenib, and at 10 μM, the % dead: % live ratio is 0.78 for 5-FU as opposed to 0.08 for Regorafenib. The % dead: % live ratios for the three concentrations of Regorafenib and 5-FU were substantially higher than the control % dead: % live ratio value of only 0.03.
Hydrogel Components of the Ringed Organoid Constructs: The hyaluronic acid-based hydrogel used in making the ringed organoids was a mixture of four components: Heprasil, Gelin-S, and PEGDA 2-ARM Acrylate crosslinker (Extralink), and Alkyne-PEG-Alkyne 2-ARM crosslinker (ESI BIO, California, USA). These components were mixed in a 4:4:1:1 ratio by volume. 0.1% Irgacure photoinitiator was added to each of the four components prior to their mixture and the […] were placed in a 37° C. incubator for a ˜30 minutes to solubilize. HCT116 and CACO2 cells were isolated in the passaging method previously mentioned and PDMS was used to coat the bottom of the 96-well plates.
Forming Ringed-Organoid Constructs: The four components of the hydrogel were added to the 15 mL centrifuge tube containing the HCT116 cell pellet and the cells were resuspended within the mixture. 10 μL of the HCT116 containing hydrogel were placed in the center of the wells and left untouched with aluminum foil covering the 96-well plates for ˜35 minutes. During this time, the PEGDA 2-ARM Acrylate will crosslink the gel, while the UV-sensitive 2-ARM Alkyne-PEG-Alkyne will remain uncrosslinked.
While waiting for the PEGDA to crosslink, add the four hydrogel components to the 15 mL centrifuge tube containing the isolated CACO2 cells and resuspend the cells within the gel. Remove the aluminum foil wrapping on the 96-well plate and inspect the construct to see if they have solidified yet. If so, take 25 μL of the CACO2-embedded-hydrogel and carefully place in the area around the HCT116 construct. Use the pipette tip to physically move the CACO2 gel around the construct on all sides. Use UV light from BlueWave 200 spot light to crosslink both gels together to form a fused, ringed-construct. Add DMEM-10 media to fill up the wells.
Anticancer Drug Screening: On day 5, 1 μM, 10 μM, and 100 μM drug solutions of 5-FU were added to ringed constructs and 1 μM, 10 μM, and 100 μM drug solutions of Regorafenib were added to separate ringed constructs. Three duplicates were generated for each of the drug concentrations and a no-drug control was maintained as well.
Live-Dead Staining and Microscopy: On day 7, the ringed-constructs underwent a Live-Dead stain and the construct were imaged on an Axiovert 200M 487-1 microscope (Carl Zeiss AG, Oberkochen, Germany). […]

HCT116 cells = test: 3D hyaluronan-based hydrogel construct drug screen, MTS assay; settings: Homo sapiens, HCT-116, 3D, read-out: percent relative cell viability (MTS, relative to control)
Procedure: Polydimethylsiloxane, or PDMS, was used to coat the bottom of the wells. Cells were embedded within the hyaluronan-based hydrogel and were given 5 days to acclimate to their three-dimensional environment and on day 5 were administered different anticancer drug solutions (FIG. 7, panel A). […], Dabrafenib had greater efficacy in targeting the HCT116 and SW480 cell lines, which had relative cellular viability values of 38% and 43%, as opposed to the HT29 and CACO2 cell lines, which had higher cell viability values of 93% and 75%. […]
Well Coating with PDMS and Cell Isolation: Polydimethylsiloxane, or PDMS, (DOW Corning, North Carolina, USA) was used at a 1:10 curing agent ratio to coat the bottom of the 96-well plates and the plates were then placed in a 80° C. oven for at least one hour. Cells were passaged in the same methods previously mentioned (A) with the desire to place 10 μL 3D hyaluronan-based hydrogel constructs containing 100,000 cells each ([…]) into the wells of a 96-wells plate for all four colorectal cancer cell types. Depending on the cell count, a desired number of cells were isolated in new 15 mL centrifuge tubes as cell-media solution and underwent centrifugation.
Hydrogel Components of the Single-Cell Type Constructs: The hyaluronic acid-based hydrogel (ESI BIO, California, USA) was produced using a mixture of three components: Heprasil, Gelin-S, and Extralink PEGDA 2-ARM Acrylate crosslinker. These components were mixed in a 2:2:1 ratio by volume. 0.1% Irgacure photoinitiator (Sigma-Aldrich, Missouri, USA) was added to each of the three components prior to their mixture and the three components were placed in a 37° C. incubator for a ˜30 minutes to solubilize.
Forming Organoid Constructs: Once solubilized, the media was aspirated from the 15 mL centrifuge tube (post-centrifugation) and the cells were isolated as a pellet. The hydrogel components were added directly into the centrifuge tube containing the cells and the cells were carefully resuspended in the mixture. 10 μL of the gel-cell solution was placed in the center of the wells on the PDMS coating. This was continued for all wells containing cells and was repeated for each cell type. After this point, the gel can be exposed to UV light from a BlueWave 200 spot light (Dymax, Connecticut, USA) to solidify the hydrogel, or one can wait ˜30 minutes for the gel to form on its own. DMEM-10 media was then placed in the wells and the constructs were incubated for 5 days.
Anticancer Drug Screening and Cell Viability: The same five anticancer drugs were added on Day 5 and the cell viability assay occurred on Day 7.

SMILES	% dead: % live ratio ([1]; 1 μM)	% dead: % live ratio ([1]; 10 μM)	% dead: % live ratio ([1]; 100 μM)	cell type targeted in ringed construct (live-dead images) [1]	viability at 10000 µM (HCT116 cells; 10 mM, HCT116) [%]	viability at 100000 µM (HCT116 cells; 100 mM, HCT116) [%]	viability at 100 µM (HCT116 cells; 100 μM, HCT116, drug day 5, assay day 7) [%]
O=c1[nH]cc(F)c(=O)[nH]1 [5-FU, 5-Fluorouracil]	0.95	0.78	0.98	targeting both cell types to similar degrees; also recorded: universal cell death of both HCT116 and CACO2	18	81	–
CNC(=O)c1cc(Oc2ccc(NC(=O)Nc3ccc(Cl)c(C(F)(F)F)c3)c(F)c2)ccn1 [Regorafenib]	0.48	0.08	0.98	inner HCT116 cells were affected by Regorafenib to a greater extent than the CACO2 cells; also recorded: targeted cell death of HCT116	–	–	< 25
